Source: patent US6835371B1 (priority 1997, dated 2004)
Values joined by “and” are separate entries in the source; they are usually repeats but may differ in a detail not shown here. Identical values can stand only once. Like-named read-outs stand apart in the source and are kept apart here.

Assays:
[1] = biological target: T1, human norepinephrine transporter (hNET) (Homo sapiens, UniProt P23975); experiment: biochemical; format: binding
[2] = biological target: T1, human norepinephrine transporter (hNET); experiment: cell-based
[3] = biological target: T2, human dopamine transporter (hDAT) (Homo sapiens, UniProt Q01959); experiment: biochemical; format: binding
T2 sequence (Q01959 whole entry): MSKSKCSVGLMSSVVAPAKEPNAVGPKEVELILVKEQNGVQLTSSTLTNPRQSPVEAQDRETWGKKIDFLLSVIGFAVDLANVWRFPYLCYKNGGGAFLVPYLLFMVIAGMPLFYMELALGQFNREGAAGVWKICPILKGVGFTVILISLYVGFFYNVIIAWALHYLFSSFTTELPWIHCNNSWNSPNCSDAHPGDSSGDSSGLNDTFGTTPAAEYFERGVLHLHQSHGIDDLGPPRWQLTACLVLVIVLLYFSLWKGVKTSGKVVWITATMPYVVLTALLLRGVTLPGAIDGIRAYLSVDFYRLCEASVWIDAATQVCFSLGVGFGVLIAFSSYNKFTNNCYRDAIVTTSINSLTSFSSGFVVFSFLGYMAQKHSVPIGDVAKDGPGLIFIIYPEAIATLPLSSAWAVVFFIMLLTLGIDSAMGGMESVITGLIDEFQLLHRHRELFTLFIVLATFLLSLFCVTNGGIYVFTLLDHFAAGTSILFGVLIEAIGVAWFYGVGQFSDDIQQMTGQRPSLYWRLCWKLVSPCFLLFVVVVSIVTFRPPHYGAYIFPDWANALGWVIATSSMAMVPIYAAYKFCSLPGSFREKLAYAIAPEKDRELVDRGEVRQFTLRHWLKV

[4] = tested on: male Swiss-Webster mice; experiment: animal or person; format: in vivo; settings: for Doses with significant differences against the vehicle group (p<0.05) / Maximal effect/cocaine maximal effect ratio (ME/CME) / Maximum effect, horizontal activity / Dose at estimated maximum effect: mouse, in vivo; for Doses with significant differences against the vehicle group (p<0.05) / ED50 / Dose at estimated maximum effect: ip; for ED50: Mus musculus, read-out: ED50 (dose producing ½ maximal stimulant activity)
[5] = tested on: male Swiss-Webster mice; experiment: Cocaine interaction study (locomotor activity); format: in vivo; settings: for Doses with significant differences against the cocaine group (p<0.05): planned comparisons on log10 horizontal activity counts
[6] = biological target: T2, human dopamine transporter (hDAT); experiment: cell-based
[7] = read-out: [125I]RTI-55 binding Ki, NET
[8] = read-out: [125I]RTI-55 binding Ki, DAT
[9] = read-out: [3H]Dopamine Uptake IC50
[10] = HEK-hNET cells, read-out: [125I]RTI-55 binding Ki, NET
[11] = HEK-hNET cells, read-out: [3H]NE Uptake IC50
[12] = Table 2, read-out: Reuptake [3H]NE (Ki ± SD)

T1 sequence (P23975 whole entry): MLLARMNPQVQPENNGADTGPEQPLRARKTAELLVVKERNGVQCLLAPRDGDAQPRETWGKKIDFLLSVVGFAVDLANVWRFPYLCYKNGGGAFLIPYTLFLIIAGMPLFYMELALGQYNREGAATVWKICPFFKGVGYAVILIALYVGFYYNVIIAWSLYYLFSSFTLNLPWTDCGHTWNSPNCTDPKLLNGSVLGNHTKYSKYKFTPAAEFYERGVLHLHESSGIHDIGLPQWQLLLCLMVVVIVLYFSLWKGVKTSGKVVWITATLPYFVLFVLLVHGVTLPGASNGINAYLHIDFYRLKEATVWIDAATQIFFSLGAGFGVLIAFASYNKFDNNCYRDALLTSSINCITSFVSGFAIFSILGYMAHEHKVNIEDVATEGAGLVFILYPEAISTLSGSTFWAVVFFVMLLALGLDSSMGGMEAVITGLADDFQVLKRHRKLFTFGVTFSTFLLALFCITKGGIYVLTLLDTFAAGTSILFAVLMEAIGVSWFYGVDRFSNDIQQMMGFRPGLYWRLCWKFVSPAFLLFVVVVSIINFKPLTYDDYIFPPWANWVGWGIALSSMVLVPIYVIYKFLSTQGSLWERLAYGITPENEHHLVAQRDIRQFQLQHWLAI

SMILES | Hill coefficient [1] | Ki ([1]; [125I]RTI-55 binding Ki, NET) | Ki [1, 7] [µM] | IC50 ([2]; read-out: [3H]NE Uptake IC50) | Binding discrimination ratio NET/DAT [3] | Binding discrimination ratio SERT/DAT [3] | Hill coefficient [3] | Ki ([3]; [125I]RTI-55 binding Ki, DAT) [µM] | Ki [3, 8] [µM] | Discrimination Ratio DAT Binding/Reuptake [6] | Discrimination ratio uptake/binding (DA) [6] | IC50 [6] [nM] | IC50 [6, 9] [nM] | also measured
Fc1ccc(C(OCCCCN2CCN(c3cccc(C(F)(F)F)c3)CC2)c2ccc(F)cc2)cc1 [Compound 31532] | −0.80 ± 0.03 | 0.222 µM | 0.222 | 310 nM | 6.8 | 6.8 | −0.87 ± 0.05 | 0.0325 | 0.0325 | 11.7 | 11.7 | 380 | – | Ki [2]: 310 ± 100 nM; IC50 ([2]; [3H]NE Uptake IC50): 310 nM; ID50 (dose producing ½ maximal depressant activity) ([4]; IP, 20 min pretreatment, 0-30 min, descending portion 10 to 100 mg/kg): 112.95 mg/kg; Doses with significant differences against the vehicle group (p<0.05) [4]: 100 mg/kg; AD50 (dose attenuating cocaine-induced stimulation by 50%) ([5]; IP, 20 mg/kg cocaine IP, 30-min period): 18.35 mg/kg; Doses with significant differences against the cocaine group (p<0.05) ([5]; 20 mg/kg cocaine IP): 100 mg/kg; Ki [6]: 380 ± 130 nM
Fc1ccc(C(OCCCCN2CCN(c3ccc(Cl)cc3)CC2)c2ccc(F)cc2)cc1 [Compound 31652] | −0.80 ± 0.08 | 0.38 µM and 3.8 µM | – | 390 nM | 7.6 | 0.7 | −1.08 ± 0.18 | 0.05 | – | 23.4 | – | 1170 | – | IC50 ([2]; [3H]NE Uptake IC50): 390 nM
OC1CCN(CCCCOC(c2ccc(F)cc2)c2ccc(F)cc2)CC1 [Compound 31648] | −0.75 ± 0.06 | – | 0.61 | 143 nM | 5.4 | 3.7 | −0.69 ± 0.07 | – | 0.124 ± 0.027 | 0.9 | – | – | 101 | –
OC1(c2ccc(Cl)cc2)CCN(CCCCOC(c2ccc(F)cc2)c2ccc(F)cc2)CC1 [Compound 31625] | −0.99 ± 0.22 | – | – | – | 51.7 | 2380 | −0.74 ± 0.25 | 0.0042 | – | 95.2 | – | – | – | Ki [1, 10]: 0.217 µM; IC50 [2, 11]: 800 nM; IC50 ([6]; HEK-hDAT cells, text of Examples 20 and 24, read-out: [3H]Dopamine Uptake IC50): 400 nM
Fc1ccc(C(OCCCCN2CCN(c3ccc(F)cc3)CC2)c2ccc(F)cc2)cc1 [Compound 31527] | −0.72 ± 0.05 | 0.207 µM | – | – | 7.8 | 1.3 | −0.84 ± 0.05 | 0.0265 | – | 23.0 | 23.0 | 610 | – | Ki [2]: 225 ± 28 nM; IC50 ([2]; [3H]NE Uptake IC50): 225 ± 28 nM; Ki [6]: 610 ± 150 nM
OC1(c2ccccc2)CCN(CCCCOC(c2ccc(F)cc2)c2ccc(F)cc2)CC1 [Compound 31531] | −0.73 ± 0.03 | 0.054 µM | – | – | 8.4 | 2.8 | −0.63 ± 0.06 | 0.0064 | – | – | 15.0 | 96 | – | IC50 [2, 11]: 179 nM; Ki [2, 12]: 179 ± 47 nM; Ki [6]: 96 ± 11 nM
COc1ccccc1N1CCN(CCCCOC(c2ccc(F)cc2)c2ccc(F)cc2)CC1 [Compound 31654] | −0.59 ± 0.02 | – | 0.092 | 176 nM | 3.5 | 9.7 | −0.88 ± 0.09 | – | 0.0262 | 11.5 | – | – | 301 | –
OC1CCCN(CCCCOC(c2ccc(F)cc2)c2ccc(F)cc2)C1 (stereo not drawn) [Compound 31650] | −0.66 ± 0.05 | – | 0.611 | 310 nM | 6.7 | 4.8 | −0.82 ± 0.15 | – | 0.091 | 1.3 | – | – | 114 | –
Fc1ccc(C(OCCCCN2CCNC(c3ccccc3)C2)c2ccc(F)cc2)cc1 (stereo not drawn) [Compound 31533] | – | – | – | – | 49.9 | 19.6 | – | – | – | – | 144.4 | – | – | Ki [2]: 290 ± 130 nM; ED50 [4]: 1.52 mg/kg; Maximal effect/cocaine maximal effect ratio (ME/CME) [4]: 0.30; Maximum effect, horizontal activity [4]: 1648.6 counts/10 min; Dose at estimated maximum effect [4]: 10.26 mg/kg; Doses with significant differences against the cocaine group (p<0.05) ([5]; 20 mg/kg cocaine IP): 30 mg/kg; Ki [6]: 550 ± 140 nM
O=c1[nH]c2ccccc2n1C1CCN(CCCCOC(c2ccc(F)cc2)c2ccc(F)cc2)CC1 [Compound 31649] | −0.47 ± 0.03 | – | 0.0222 | 132 nM | 16.8 | 2.9 | −0.63 ± 0.23 | – | 0.00132 | 323 | – | – | 426 | –
Fc1ccc(C(OCCCCN2CCN(c3ccccc3Cl)CC2)c2ccc(F)cc2)cc1 [Compound 31626] | −1.39 ± 0.23 | – | 0.54 | 290 nM and 299 nM | 8.1 | 1.3 | −1.11 ± 0.08 | – | 0.067 | 4.9 | – | – | 328 | –
Fc1ccc(C(OCCCCN2CCN(c3ccccc3)CC2)c2ccc(F)cc2)cc1 [Compound 31653] | −0.93 ± 0.17 | 0.203 µM | – | – | 3.3 | 0.8 | −1.14 ± 0.10 | 0.0609 | – | 23.2 | – | 1410 | – | IC50 ([2]; [3H]NE Uptake IC50): 56.3 nM
Fc1ccc(C(OCCCCN2CCN(c3cccc(Cl)c3)CC2)c2ccc(F)cc2)cc1 [Compound 31651] | – | – | 0.3 ± 0.07 | 189 ± 89 nM | 1.7 | 0.8 | – | – | 0.175 ± 0.071 | 9.5 | – | – | 1670 ± 440 | –
Fc1ccc(C(OCCCCN2CCN(c3ccccc3F)CC2)c2ccc(F)cc2)cc1 [Compound 31526] | −0.91 ± 0.09 | 0.417 µM | – | 700 nM | 10.8 | 0.8 | −0.86 ± 0.06 | 0.0387 | – | 11.9 | 11.9 | 460 | – | Ki [2]: 700 ± 240 nM; IC50 ([2]; [3H]NE Uptake IC50): 700 nM; ED50 [4]: 0.015 mg/kg; Maximal effect/cocaine maximal effect ratio (ME/CME) [4]: 0.49; Maximum effect, horizontal activity [4]: 2716.1 counts/10 min; Dose at estimated maximum effect [4]: 0.64 mg/kg; Doses with significant differences against the vehicle group (p<0.05) [4]: 1 mg/kg; Attenuation of cocaine-induced locomotor activity ([5]; 0.1-10 mg/kg IP 20 min before 20 mg/kg cocaine IP): did not attenuate locomotor activity induced by 20 mg/kg cocaine; Ki [6]: 460 ± 140 nM
NC(=O)C1CCCN(CCCCOC(c2ccc(F)cc2)c2ccc(F)cc2)C1 (stereo not drawn) [Compound 31628] | −1.48 ± 0.70 | – | 0.578 | 158 nM | 6.1 | 1.4 | −1.02 ± 0.16 | – | 0.094 | 0.6 | – | – | 56 | –
CC(=O)C1(c2ccccc2)CCN(CCCCOC(c2ccc(F)cc2)c2ccc(F)cc2)CC1 [Compound 31525] | −0.71 ± 0.06 | – | – | – | 5.3 | 5.8 | −0.61 ± 0.01 | 0.0217 | – | – | 47.5 | – | – | Ki [1, 10]: 0.114 µM; IC50 [2, 11]: 2550 nM; Ki [2, 12]: 2550 ± 950 nM; IC50 ([6]; HEK-hDAT cells, read-out: [3H]Dopamine Uptake IC50): 1030 nM; Ki ([6]; Table 2, read-out: Reuptake [3H]DA (Ki ± SD)): 1030 ± 330 nM
O=C1c2ccccc2C(=O)N1CCCCN1CCC(O)(c2ccc(Br)cc2)CC1 [Compound 31627] | – | – | – | >10000 nM | 1 | >0.2 | – | – | – | – | – | – | >10000 | Ki ([1]; HEK-hNET cells, bound given in μM, read-out: [125I]RTI-55 binding Ki, NET): > 10 µM; Ki ([3]; HEK-hDAT cells, bound given in μM, read-out: [125I]RTI-55 binding Ki, DAT): > 10 µM
O=C1CN(CCCCOC(c2ccc(F)cc2)c2ccc(F)cc2)CCN1 [Compound 31524] | – | – | > 10 | – | >2.4 | 0.4 | −064 ± 0.03 | – | 4.1 | – | 0.6 | – | 2290 | Ki ([2]; read-out: Reuptake [3H]NE (Ki ± SD)): > 10000 nM; Ki ([6]; read-out: Reuptake [3H]DA (Ki ± SD)): 2290 ± 200 nM
